Calls of active or inactive are those of the source. The calls are words filed in the database; no cut-off is given here.
Assays:
[1] = Competitive inhibition of PKA expressed in Escherichia coli assessed as fluorescence labeled peptide substrate phosphorylation after 60 mins in presence of ATP
[2] = molecular target: T1, RAC-alpha serine/threonine-protein kinase (Homo sapiens, UniProt P31749)
Description: Competitive inhibition of wild-type full-length amino-terminal polyhistidine-tagged human Akt1 expressed in recombinant baculovirus system using fluorescence labeled substrate after 60 mins by fluorescence polarization assay in presence of ATP

[3] = molecular target: RAC-gamma serine/threonine-protein kinase (Homo sapiens, UniProt Q9Y243)
Description: Competitive inhibition of wild-type full-length amino-terminal polyhistidine-tagged human Akt3 expressed in recombinant baculovirus system using fluorescence labeled Crosstide as substrate after 60 mins by fluorescence polarization assay in presence of ATP

[4] = molecular target: T1, RAC-alpha serine/threonine-protein kinase; remark: listed apart in the source
Description: Inhibition of Akt1 in human LNCAP cells assessed as phosphorylation of PRAS40 at Thr246 after 1.5 hrs

[5] = Plasma concentration in nu/nu mouse xenografted with human PC3 cells at 100 mg/kg, po at 8 hrs by LC/MS/MS analysis; format: ADME, organism-based, PC-3; set-up: dose 100 mg/kg, route oral
Mus musculus [6] = experiment: Toxicity in nu/nu mouse xenografted with human PC3 cells assessed as loss in body weight at 150 mg/kg, po qd after 8 days relative to vehicle-treated control; format: organism-based, PC-3; set-up: dose 150 mg/kg, route oral; conditions: in vivo, 192 h
[7] = Plasma concentration in nu/nu mouse xenografted with human PC3 cells at 50 mg/kg, po within 1 hr by LC/MS/MS analysis; format: ADME, organism-based, PC-3; set-up: dose 50 mg/kg, route oral
LNCaP = experiment: Cytotoxicity against human LNCAP cells assessed as reduction of resazurin to resorufin after 72 hrs
PC-3 [8] = experiment: Antitumor activity against human PC3 xenografted in nu/nu mouse assessed as inhibition of tumor growth at 100 mg/kg, po qd after 11 days; format: functional; conditions: PC-3, 264 h, read-out: TGI
[9] = Plasma concentration in nu/nu mouse xenografted with human PC3 cells at 50 mg/kg, po at 9 hrs by LC/MS/MS analysis; format: ADME, organism-based, PC-3; set-up: dose 50 mg/kg, route oral
[10] = Plasma concentration in nu/nu mouse xenografted with human PC3 cells at 50 mg/kg, po at 1 hr by LC/MS/MS analysis; format: ADME, organism-based, PC-3; set-up: dose 50 mg/kg, route oral
[11] = Solubility of the compound at pH 1.2 to 7.4; format: physicochemical; conditions: buffer
PC-3 [12] = experiment: Antitumor activity against human PC3 xenografted in po dosed nu/nu mouse assessed as inhibition of tumor growth administered once daily measured after 11 days; format: functional; conditions: PC-3, po, 264 h, read-out: MED
MCF7 = experiment: Cytotoxicity against human MCF7 cells overexpressing Her2 assessed as decrease in cell viability after 96 hrs by CellTitre-Glo assay; conditions: MCF7, 96 h
[13] = Plasma concentration in nu/nu mouse xenografted with human PC3 cells at 12.5 mg/kg, po within 1 hr by LC/MS/MS analysis; format: ADME, organism-based, PC-3; set-up: dose 12.5 mg/kg, route oral
PC-3 [14] = experiment: Antitumor activity against human PC3 xenografted in nu/nu mouse assessed as inhibition of tumor growth at 25 mg/kg, po qd after 11 days; format: functional; conditions: PC-3, 264 h, read-out: TGI
BT-474 = experiment: Cytotoxicity against human BT474M1 cells assessed as decrease in cell viability after 96 hrs by CellTitre-Glo assay; conditions: BT474M1, 96 h
PC-3 [15] = experiment: Antitumor activity against human PC3 xenografted in nu/nu mouse assessed as inhibition of tumor growth at 50 mg/kg, po bid after 11 days; format: functional; conditions: PC-3, 264 h, read-out: TGI
PC-3 [16] = experiment: Cytotoxicity against human PC3 cells assessed as decrease in cell viability after 96 hrs by CellTitre-Glo assay; conditions: PC-3, 96 h
[17] = molecular target: T1, RAC-alpha serine/threonine-protein kinase; conditions: BT474M1
Description: Inhibition of Akt1-mediated PRAS40 phosphorylation in human BT474M1 cells

Mus musculus [18] = experiment: Inhibition of Akt in nu/nu mouse xenografted with human PC3 cells assessed as decrease in tumor p-PRAS40 level at 100 mg/kg, po at 8 hrs by ELISA relative to total PRAS40; format: functional; conditions: PC-3, 8 h
Mus musculus [19] = experiment: Inhibition of Akt in nu/nu mouse xenografted with human PC3 cells assessed as decrease in tumor p-PRAS40 level at 100 mg/kg, po within 3 hrs by ELISA relative to total PRAS40; format: functional; conditions: PC-3, 3 h
Mus musculus [20] = experiment: Toxicity in nu/nu mouse xenografted with human PC3 cells assessed as loss in body weight at 1 to 100 mg/kg, po qd relative to vehicle-treated control; format: organism-based, PC-3; set-up: dose 1-100 mg/kg, route oral; conditions: in vivo
[21] = Permeability across apical to basolateral side in human Caco2 cells; format: ADME, cell-based; conditions: Caco-2, read-out: permeability
[22] = Permeability across basolateral to apical side in human Caco2 cells; format: ADME, cell-based; conditions: Caco-2, read-out: permeability

T1 sequence (P31749 whole entry): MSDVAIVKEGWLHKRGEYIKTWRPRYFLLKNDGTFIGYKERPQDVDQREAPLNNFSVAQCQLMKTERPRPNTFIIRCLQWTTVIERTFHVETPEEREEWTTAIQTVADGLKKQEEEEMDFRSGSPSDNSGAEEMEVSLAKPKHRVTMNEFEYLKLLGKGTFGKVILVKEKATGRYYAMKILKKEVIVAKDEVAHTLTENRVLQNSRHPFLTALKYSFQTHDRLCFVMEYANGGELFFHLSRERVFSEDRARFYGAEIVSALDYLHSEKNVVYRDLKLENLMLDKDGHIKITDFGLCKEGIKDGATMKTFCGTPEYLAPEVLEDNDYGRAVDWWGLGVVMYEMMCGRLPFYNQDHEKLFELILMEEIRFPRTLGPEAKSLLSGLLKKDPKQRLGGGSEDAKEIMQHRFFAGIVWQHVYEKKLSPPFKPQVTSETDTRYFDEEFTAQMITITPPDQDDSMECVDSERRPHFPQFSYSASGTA
Sequence of RAC-gamma serine/threonine-protein kinase (Q9Y243 whole entry): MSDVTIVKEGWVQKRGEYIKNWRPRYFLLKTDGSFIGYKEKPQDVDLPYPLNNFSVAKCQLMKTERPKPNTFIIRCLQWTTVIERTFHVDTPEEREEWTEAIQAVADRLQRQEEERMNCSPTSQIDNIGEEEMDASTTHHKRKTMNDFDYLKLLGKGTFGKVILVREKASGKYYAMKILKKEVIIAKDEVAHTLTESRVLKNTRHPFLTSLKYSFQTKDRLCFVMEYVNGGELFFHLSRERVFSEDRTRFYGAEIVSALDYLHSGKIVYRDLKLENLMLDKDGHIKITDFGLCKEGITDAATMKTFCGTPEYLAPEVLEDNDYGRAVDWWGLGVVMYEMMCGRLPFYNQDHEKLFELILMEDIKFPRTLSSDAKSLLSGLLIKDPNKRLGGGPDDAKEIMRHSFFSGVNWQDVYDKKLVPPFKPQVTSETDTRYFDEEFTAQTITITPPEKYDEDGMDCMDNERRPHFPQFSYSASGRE

Structure (SMILES) | IC50 [1] [nM] | IC50 [2] [nM] | IC50 [3] [nM] | IC50 [4] [nM] | other results
C[C@@H]1C[C@@H](O)c2ncnc(N3CCN(C(=O)[C@H](CNCCF)c4ccc(Cl)cc4)CC3)c21 | 1320 | 12 | 21 | 1300 | 
CC(C)NC[C@@H](C(=O)N1CCN(c2ncnc3c2[C@H](CO)CC3)CC1)c1ccc(Cl)cc1 | 957 | 81 | 83 | 846 | 
C[C@@H]1C[C@@H](O)c2ncnc(N3CCN(C(=O)[C@H](CNC4CCOCC4)c4ccc(Cl)cc4)CC3)c21 | 654 |  |  |  | 
C=C[C@@H]1CCc2ncnc(N3CCN(C(=O)[C@H](CNC(C)C)c4ccc(Cl)cc4)CC3)c21 | 10 | 2 | 1 | 176 | 
C[C@@H]1C[C@@H](O)c2ncnc(N3CCN(C(=O)[C@H](CNCC4CCOCC4)c4ccc(Cl)cc4)CC3)c21 | 436 | 3 | 4 | 102 | 
C[C@@H]1C[C@@H](O)c2ncnc(N3CCN(C(=O)[C@H](CN)c4ccc(Cl)cc4)CC3)c21 | 700 | 24 | 45 | 1450 | 
C[C@@H]1C[C@@H](O)c2ncnc(N3CCN(C(=O)[C@H](CNC(C)(C)CO)c4ccc(Cl)cc4)CC3)c21 | 293 | 2 | 3 | 75 | 
CC(C)NC[C@@H](C(=O)N1CCN(c2ncnc3c2[C@H](C)C[C@@H]3O)CC1)c1ccc(Cl)cc1 | 1550 |  |  |  | 
CC(C)NC[C@@H](C(=O)N1CCN(c2ncnc3c2[C@H](C)C[C@H]3O)CC1)c1ccc(Cl)cc1 [IPATASERTIB] | 3100 |  |  |  | concentration at 8 h [5]: > 2600 nM; Activity (Mus musculus [6]): >= 20%; concentration at 1 h [7]: ≥ 200 nM; IC50 (LNCaP): 95 nM; inhibition in vivo at 100 mg/kg (PC-3 [8]): 79%; concentration at 9 h [9]: 500 nM; concentration at 1 h [10]: 7400 nM; solubility [11]: > 10000 µg/mL; minimal effective dose (PC-3 [12]): 25 mg/kg; IC50 (MCF7): 1000 nM; concentration at 1 h [13]: ≥ 200 nM; inhibition in vivo at 25 mg/kg (PC-3 [14]): 49%; IC50 (BT-474): 1000 nM; inhibition in vivo at 50 mg/kg (PC-3 [15]): 81%; IC50 (PC-3 [16]): 1000 nM; inhibition [17]: Active; inhibition in vivo at 100 mg/kg (Mus musculus [18]): 87%; inhibition in vivo at 100 mg/kg (Mus musculus [19]): > 95%; Activity (Mus musculus [20]): < 10%
C[C@@H]1C[C@@H](O)c2ncnc(N3CCN(C(=O)[C@H](CNC(C)(C)CO)c4ccc(C(F)(F)F)c(F)c4)CC3)c21 | 75 |  | 2 |  | 
C[C@@H]1C[C@@H](O)c2ncnc(N3CCN(C(=O)[C@@H](c4ccc(Cl)cc4)[C@@H]4CCCN4)CC3)c21 | 271 | 3 | 5 | 241 | 
C[C@@H]1C[C@@H](O)c2ncnc(N3CCN(C(=O)[C@H](CN4CCC(F)CC4)c4ccc(Cl)cc4)CC3)c21 | 1200 | 6 |  | 196 | 
CC(C)NC[C@@H](C(=O)N1CCN(c2ncnc3c2[C@H](C)C[C@@H]3F)CC1)c1ccc(Cl)cc1 | 541 |  | 23 |  | 
CC(C)NC[C@@H](C(=O)N1CCN(c2ncnc3c2[C@H](CF)CC3)CC1)c1ccc(Cl)cc1 | 35 | 3 | 5 | 123 | 
C[C@@H]1C[C@@H](O)c2ncnc(N3CCN(C(=O)[C@H](CNC4CCOCC4)c4ccc(Cl)c(F)c4)CC3)c21 | 556 | 12 | 12 | 139 | 
C[C@@H]1C[C@@H](O)c2ncnc(N3CCN(C(=O)[C@H](CN)c4ccc(C(F)(F)F)cc4)CC3)c21 | 418 | 12 | 27 | 603 | 

Structure (SMILES) | IC50 [1] [nM] | IC50 [2] [nM] | IC50 [3] [nM] | IC50 [4] [nM] | other results
CC(C)NC[C@@H](C(=O)N1CCN(c2ncnc3c2[C@H](C)CC3)CC1)c1ccc(Cl)cc1 | 33 | 6 | 5 | 287 | Papp A→B [21]: 13.2 ×10⁻⁶ cm/s; Papp B→A [22]: 19.2 ×10⁻⁶ cm/s
CC(C)NC[C@@H](C(=O)N1CCN(c2ncnc3c2[C@H](C)C[C@H]3F)CC1)c1ccc(Cl)cc1 | 17 |  | 10 |  | 
CO[C@H]1CC[C@H](NC[C@@H](C(=O)N2CCN(c3ncnc4c3[C@H](C)C[C@H]4O)CC2)c2ccc(Cl)cc2)CC1 | 662 | 5 | 4 | 132 | 
CC(C)NC[C@@H](C(=O)N1CCN(c2ncnc3c2C(C)(C)CC3)CC1)c1ccc(Cl)cc1 | > 2000 |  | > 2000 |  | 
COCCNC[C@@H](C(=O)N1CCN(c2ncnc3c2[C@H](C)C[C@H]3O)CC1)c1ccc(Cl)cc1 | 1000 | 8 | 13 | 384 | 
C[C@@H]1C[C@@H](O)c2ncnc(N3CCN(C(=O)[C@H](CNCC4CC4)c4ccc(Cl)cc4)CC3)c21 | 777 |  |  |  | 
C[C@@H]1C[C@@H](O)c2ncnc(N3CCN(C(=O)[C@@H](c4ccc(Cl)cc4)[C@@H]4COCCN4)CC3)c21 | 1360 | 12 | 26 | 855 | 
C[C@@H]1C[C@@H](O)c2ncnc(N3CCN(C(=O)[C@H](CNC(C)(C)C)c4ccc(C(F)(F)F)c(F)c4)CC3)c21 | 153 |  |  |  | 
CC(C)NC[C@@H](C(=O)N1CCN(c2ncnc3c2[C@H](C)CC3(F)F)CC1)c1ccc(Cl)cc1 | > 10000 | 1170 |  | 8550 | 
C[C@@H]1C[C@@H](O)c2ncnc(N3CCN(C(=O)[C@H](CNCC4CC4)c4ccc(C(F)(F)F)c(F)c4)CC3)c21 | 103 |  | 2 |  | 
CC(C)NC[C@@H](C(=O)N1CCN(c2ncnc3c2[C@H](C)C[C@H]3O)CC1)c1ccc(Cl)c(F)c1 | 490 | 3 | 7 | 234 | 
CC(C)N(C)C[C@@H](C(=O)N1CCN(c2ncnc3c2[C@H](C)C[C@H]3O)CC1)c1ccc(Cl)cc1 | 2140 | 18 |  | 139 | 
C[C@@H]1C[C@@H](O)c2ncnc(N3CCN(C(=O)[C@@H](c4ccc(Cl)cc4)[C@@H]4CCCCN4)CC3)c21 | 1600 | 9 | 12 | 530 | 
C[C@@H]1C[C@@H](O)c2ncnc(N3CCN(C(=O)[C@H](CNCC(F)(F)F)c4ccc(Cl)cc4)CC3)c21 | > 10000 | 902 | 798 |  | 
C[C@@H]1C[C@@H](O)c2ncnc(N3CCN(C(=O)[C@H](CNC4CCCCC4)c4ccc(Cl)cc4)CC3)c21 | 1280 | 9 | 7 | 367 | 

— ChEMBL document CHEMBL2177010, “Discovery and preclinical pharmacology of a selective ATP-competitive Akt inhibitor (GDC-0068) for the treatment of human tumors” (J Med Chem, 2012)
